Where two headings read alike, the source gives them in different places.
What was measured:
[1] = tested on: Bone Marrow Macrophages (BMMs); assay: Cytokine mRNA and secretion in LPS-treated bone marrow macrophages; type: cell-based, mouse
NF-κB subunit p65 = assay: NF-κB signalling, immunoblot and ChIP in LPS-treated BMMs; type: cell-based, mouse
Description: Bone marrow macrophage cells (BMMs) were prepared from mouse bone marrow cells as described ([…] and Porse, 2008). BMMs were plated in 150-mm plates and exposed to LPS (10 ng/ml) with or without PGE2 (100 nM) for 1 hr. ChIP assays were performed as described (Screaton et al., 2004). RNA was isolated by RNeasy kit (Qiagen).

HDAC4 = HDAC4 dephosphorylation and localization in BMMs; type: cell-based, mouse; conditions: wild-type BMMs, PGE2 in combination with LPS
Description: Bone marrow macrophage cells (BMMs) were prepared from mouse bone marrow cells as described (Weischenfeldt and Porse, 2008).

[2] = LPS-induced sepsis: survival and circulating cytokines; type: in vivo, mice; conditions: for effect on survival after LPS: wild-type/control mice
Description: Cytokine and Metabolite Analysis: Mice were injected with LPS (30 mg/kg) with or without Rolipram (5 mg/kg for 16 hours (h) and serum was obtained through cardiac puncture. BMMs were stimulated with LPS (10 ng/ml) with or without PGE2 (100 nM) for 16 hr and supernatant was collected.
All mice were housed in colony cages with a 12 hr light/dark cycle in a temperature-controlled environment. For LPS-induced sepsis, mice were injected intraperitoneally with 30 mg/kg LPS or PBS (UT). Survival after LPS was monitored. For studies with KO mice, age-matched wild-type littermates were employed as controls.

[3] = Glucose and insulin tolerance testing in HFD-fed mice; type: in vivo; conditions: rolipram 7 days
Description: For HFD studies, 6-week-old mice were transferred to a 60% HFD (Research Diets, D12492) for 4 to 12 weeks as indicated. Magnetic resonance imaging scans for fat and lean mass were performed using an Echo MRI-100 instrument according to the manufacturer's instructions. For metabolic cage studies, mice were individually housed for at least 2 days. Food intake, total activity, oxygen consumption and carbon dioxide production were simultaneously measured for individually housed mice with a LabMaster system (TSE Systems). Data were collected for 2-3 days and analyzed. For glucose tolerance testing, mice were fasted for 16 h and then injected i.p. with glucose (1.5 g/kg). For insulin tolerance testing, mice were fasted 2 h and injected i.p. with insulin (Humulin; 1 U/kg). Rolipram (5 mg/kg/day) was injected i.p. for 7 days. Blood was collected from the tail vein and glucose levels were measured with a One Touch Ultra Glucometer (Johnson & Johnson).

histone deacetylase = conditions: Yoshida et al., 1990; read-out: Ki, inhibitor of histone deacetylase; cited from earlier work
[4] = Leptin injection in ob/ob mice: norepinephrine, cAMP and HDAC4 in adipose

CCCCC[C@H](O)/C=C/[C@H]1[C@H](O)CC(=O)[C@@H]1C/C=C\CCCC(=O)O [PGE2, Prostaglandin E2]
pro-inflammatory cytokine mRNA amounts and secretion ([1]; cultured BMMs exposed to LPS): reduced
IL10 mRNA and protein secretion ([1]; wild-type BMMs, LPS plus PGE2): upregulated
activation of P38 or JNK, phosphorylation of IκBα or p65 in response to LPS (NF-κB subunit p65; BMMs, LPS plus PGE2): did not interfere
p65 recruitment to the TNFα and IL12β promoters (NF-κB subunit p65; BMMs, LPS plus PGE2 compared to LPS alone): reduced
amounts of acetylated p65 in HDAC4 MKO cells (NF-κB subunit p65; HDAC4 MKO BMMs, LPS plus PGE2): did not reduce
LPS-dependent increases in p65 and histone H4K5 acetylation over cytokine promoters (NF-κB subunit p65; wild-type BMMs, LPS plus PGE2): blocked
HDAC4 dephosphorylation at Ser246 and nuclear translocation (HDAC4): triggered

COc1ccc(C2CNC(=O)C2)cc1OC1CCCC1 (stereo not shown) [Rolipram]
effect on LPS-induced cytokine release (circulating TNFα, IL12β) ([2]; C57BL/6J mice, LPS 30 mg/kg, Rolipram 5 mg/kg co-administered): blocked
effect on survival after LPS in HDAC4 MKO mice ([2]; HDAC4 MKO littermates, LPS plus rolipram): modest effects
effect on survival after LPS ([2]; LPS 30 mg/kg, Rolipram 5 mg/kg co-administered): blocked
effect on survival after LPS ([2]; LPS 30 mg/kg, Rolipram 5 mg/kg co-administered, listed as rolipram): improved survival
glucose tolerance and insulin sensitivity in HDAC4 MKO ([3]; HDAC4 MKO littermates on HFD): not
glucose tolerance and insulin sensitivity ([3]; wild-type mice on HFD): improved

CC(/C=C/C(=O)NO)=C\[C@@H](C)C(=O)c1ccc(N(C)C)cc1 [Trichostatin A, (2E,4E,6R)-7-(4-(Dimethylamino)phenyl)-N-hydroxy-4,6-dimethyl-7-oxo-2,4-heptadienamide]
Ki (histone deacetylase): ~3.4 nM

CC(C)NCC(O)COc1cccc2ccccc12 (stereo not shown) [propranolol]
leptin-induced HDAC4 de-phosphorylation in WAT ([4]; leptin plus propranolol): propranolol-sensitive
leptin-induced rise in cAMP ([4]; ob/ob mice, leptin plus β adrenergic antagonist): blocked

CN[C@@H]1C[C@H]2O[C@@](C)([C@@H]1OC)n1c3ccccc3c3c4c(c5c6ccccc6n2c5c31)C(=O)NC4 [staurosporine]
cytokine gene expression ([1]; BMMs exposed to LPS, pre-treatment with SIK inhibitor 10 nM): decreased

cholera toxin
cytokine gene expression [1]: lowered

pertussis toxin
cytokine gene expression [1]: lowered

B1: leptin: hormone injected into ob/ob mice; triggers catecholamine-dependent increases in cAMP signaling (protein, UniProt P41160 22-167, looked up)
Leptin: VPIQKVQDDTKTLIKTIVTRINDISHTQSVSAKQRVTGLDFIPGLHPILSLSKMDQTLAVYQQVLTSLPSQNVLQIANDLENLRDLLHLLAFSKSCSLPQTSGLQKPESLDGVLEASLYSTEVVALSRLQGSLQDILQQLDVSPEC
HDAC4 de-phosphorylation in WAT ([4]; leptin administration): promoted
nuclear translocation of HDAC4 in adipose resident macrophages ([4]; leptin administration): stimulated
circulating concentrations of norepinephrine and cAMP content in epididymal fat pads ([4]; ob/ob mice, leptin injection): upregulated

Source: patent US9693994B2, “Class IIa HDAC inhibitors for the treatment of infection” (Research Development Foundation, priority 2014, dated 2017)
